Data: patent US20100056565A1, “Heterocyclic Derivatives as M3 Muscarinic Receptors” (priority 2007, published 2010)
Counter-ions that a name gives are not always drawn.

Molecular target: T1, Recombinant human M3 receptor (Homo sapiens, UniProt P20309)
T1 construct: expressed in transfected cells; host or cells: CHO-K1 cells (membranes)
Experiment: biochemical
Assay type: binding
Details: SPA format; read-out: M3 Ki (SPA format)

T1 sequence (P20309 whole entry): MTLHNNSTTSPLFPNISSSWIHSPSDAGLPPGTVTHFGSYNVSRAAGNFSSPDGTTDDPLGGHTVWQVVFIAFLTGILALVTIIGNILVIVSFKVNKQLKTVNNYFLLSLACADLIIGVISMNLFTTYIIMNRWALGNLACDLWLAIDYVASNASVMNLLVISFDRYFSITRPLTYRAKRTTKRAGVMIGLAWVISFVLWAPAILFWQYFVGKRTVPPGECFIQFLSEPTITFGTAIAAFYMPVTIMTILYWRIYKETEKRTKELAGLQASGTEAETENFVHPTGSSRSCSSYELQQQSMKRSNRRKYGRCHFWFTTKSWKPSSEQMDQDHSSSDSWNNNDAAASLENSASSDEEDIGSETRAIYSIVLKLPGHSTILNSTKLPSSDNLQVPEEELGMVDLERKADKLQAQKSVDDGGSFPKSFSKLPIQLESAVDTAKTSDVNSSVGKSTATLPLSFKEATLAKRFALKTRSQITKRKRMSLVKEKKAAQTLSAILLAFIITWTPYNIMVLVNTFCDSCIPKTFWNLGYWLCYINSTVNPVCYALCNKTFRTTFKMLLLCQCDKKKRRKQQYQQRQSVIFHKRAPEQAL

| SMILES | Ki |
| --- | --- |
| O[C@](c1ccccc1)(c1ncc(C[N+]23CCC(CC2)C(Sc2ccccc2)C3)o1)C1CCCCC1 (stereo partly drawn) [Example 69, 1-[2-(R)-cyclohexyl-hydroxy-phenyl-methyl)-oxazol-5-ylmethyl]-3-phenylsulfanyl-1-azonia-bicyclo[2.2.2]octane; formate] | < 5 nM |
| O[C@](c1ccccc1)(c1nnc(C[N+]23CCC(CC2)[C@@H](Sc2ccccc2)C3)o1)C1CCCCC1 [Example 71, 1-[5-((R)—Cyclohexyl-hydroxy-phenyl-methyl)-[1,3,4]oxadiazol-2-ylmethyl]-3-phenylsulfanyl-1-azonia-bicyclo[2.2.2]octane; bromide] | < 5 nM |
| OC(c1ccccc1)(c1ccccc1)c1ncc(C[N+]23CCC(CC2)[C@@H](Oc2ccc(F)cc2)C3)o1 [Example 72, (R)-3-(4-Fluoro-phenoxy)-1-[2-(hydroxy-diphenyl-methyl)-oxazol-5-ylmethyl]-1-azonia-bicyclo[2.2.2]octane; bromide] | < 5 nM |
| OC(c1ccccc1)(c1ccccc1)c1ncc(C[N+]23CCC(CC2)[C@@H](Oc2cccc(F)c2)C3)o1 [Example 73, (R)-3-(3-Fluoro-phenoxy)-1-[2-(hydroxy-diphenyl-methyl)-oxazol-5-ylmethyl]-1-azonia-bicyclo[2.2.2]octane; bromide] | < 5 nM |
| OC(c1ccccc1)(c1ccccc1)c1ncc(C[N+]23CCC(CC2)[C@@H](Oc2cc(Cl)cc(Cl)c2)C3)o1 [Example 74, (R)-3-(3,5-dichloro-phenoxy)-1-[2-(hydroxy-diphenyl-methyl)-oxazol-5-ylmethyl]-1-azonia-bicyclo[2.2.2]octane; bromide] | > 20 nM |
| OC(c1ccccc1)(c1ccccc1)c1ncc(C[N+]23CCC(CC2)[C@@H](Oc2cccc(C(F)(F)F)c2)C3)o1 [Example 75, (R)-1-[2-[Hydroxy-diphenyl-methyl)-oxazol-5-ylmethyl]-3-(3-trifluoromethyl-phenoxy)-1-azonia-bicyclo[2.2.2]octane; bromide] | < 5 nM |
| OC(c1ccccc1)(c1ccccc1)c1ncc(C[N+]23CCC(CC2)[C@@H](Oc2ccc(F)c(Cl)c2)C3)o1 [Example 76, (R)-3-(3-chloro-4-fluoro-phenoxy)-1-[2-(hydroxy-diphenyl-methyl)-oxazol-5-ylmethyl]-1-azonia-bicyclo[2.2.2]octane; bromide] | < 5 nM |
| OC(c1ccccc1)(c1ccccc1)c1ncc(C[N+]23CCC(CC2)[C@@H](Oc2cccc(Cl)c2Cl)C3)o1 [Example 77, (R)-3-(2,3-dichloro-phenoxy)-1-[2-(hydroxy-diphenyl-methyl)-oxazol-5-ylmethyl]-1-azonia-bicyclo[2.2.2]octane; bromide] | > 20 nM |
| OC(c1ccccc1)(c1ccccc1)c1ncc(C[N+]23CCC(CC2)[C@@H](Oc2ccc(Cl)c(Cl)c2)C3)o1 [Example 78, (R)-3-(3,4-dichloro-phenoxy)-1-[2-(hydroxy-diphenyl-methyl)-oxazol-5-ylmethyl]-1-azonia-bicyclo[2.2.2]octane; bromide] | < 5 nM |
| OC(c1ccccc1)(c1ccccc1)c1ncc(C[N+]23CCC(CC2)[C@@H](Oc2ccc4c(c2)OCO4)C3)o1 [Example 79, (R)-3-(Benzo[1,3]dioxal-5-yloxy)-1-[2-(hydroxy-diphenyl-methyl)-oxazol-5-ylmethyl]-1-azonia-bicyclo[2.2.2]octane; bromide] | < 5 nM |
| N#Cc1cccc(O[C@H]2C[N+]3(Cc4cnc(C(O)(c5ccccc5)c5ccccc5)o4)CCC2CC3)c1 [Example 80, (R)-3-(3-cyano-phenoxy)-1-[2-(hydroxy-diphenyl-methyl)-oxazol-5-ylmethyl]-1-azonia-bicyclo[2.2.2]octane; bromide] | < 5 nM |
| O[C@](c1ccccc1)(c1ncc(C[N+]23CCC(CC2)C(c2ccccc2)C3)o1)C1CCCCC1 (stereo partly drawn) [Example 88, 1-[2-((R)—Cyclohexyl-hydroxy-phenyl-methyl)-oxazol-5-ylmethyl]-3-phenyl-1-azonia-bicyclo[2.2.2]octane; bromide] | 5 to 20 nM |
| OC(c1ccccc1)(c1ccccc1)c1ncc(C[N+]23CCC(CC2)[C@H](COc2ccccc2)C3)o1 [Example 92, (S)-1-[2-(Hydroxy-diphenyl-methyl)-oxazol-5-ylmethyl]-3-phenoxymethyl-1-azonia-bicyclo[2.2.2]octane; bromide] | 5 to 20 nM |
| OC(c1ccccc1)(c1ccccc1)c1noc(C[N+]23CCC(CC2)[C@H](COc2ccccc2)C3)n1 [Example 93, (S)-1-[3-(Hydroxy-diphenyl-methyl)-[1,2,4]oxadiazol-5-ylmethyl]-3-phenoxymethyl-1-azonia-bicyclo[2.2.2]octane; chloride] | < 5 nM |
| OC(c1ccccc1)(c1ccccc1)c1noc(C[N+]23CCC(CC2)[C@@H](Oc2cccc(F)c2)C3)n1 [Example 94, (R)-3-(3-Fluoro-phenoxy)-1-[3-(hydroxy-diphenyl-methyl)-[1,2,4]oxadiazol-5-ylmethyl]-1-azonia-bicyclo[2.2.2]octane; chloride] | < 5 nM |
| O[C@](c1ccccc1)(c1ncc(C[N+]23CCC(CC2)[C@@H](OC2CCCCO2)C3)o1)C1CCCCC1 (stereo partly drawn) [Example 96, (R)-1-[2-((R)—Cyclohexyl-hydroxy-phenyl-methyl)-oxazol-5-ylmethyl]-3-(tetrahydro-pyran-2-yloxy)-1-azonia-bicyclo[2.2.2]octane; bromide] | < 5 nM |
| OC(c1ccccc1)(c1ccccc1)c1ncc(C[N+]23CCC(CC2)[C@@H](Sc2ccc(F)cc2)C3)o1 [Example 97, (R)-3-(4-Fluoro-phenylsulfanyl)-1-[2-(hydroxy-diphenyl-methyl)-oxazol-5-ylmethyl]-1-azonia-bicyclo[2.2.2]octane; bromide] | < 5 nM |
| OC(c1ccccc1)(c1ccccc1)c1ncc(C[N+]23CCC(CC2)[C@@H](Sc2cccc(F)c2)C3)o1 [Example 98, (R)-3-(3-Fluoro-phenylsulfanyl)-1-[2-(hydroxy-diphenyl-methyl)-oxazol-5-ylmethyl]-1-azonia-bicyclo[2.2.2]octane; bromide] | < 5 nM |
| OC(c1ccccc1)(c1ccccc1)c1ncc(C[N+]23CCC(CC2)[C@@H](Sc2ccc(F)c(F)c2)C3)o1 [Example 99, (R)-3-(3,4-Difluoro-phenylsulfanyl)-1-[2-(hydroxy-diphenyl-methyl)-oxazol-5-ylmethyl]-1-azonia-bicyclo[2.2.2]octane; bromide] | < 5 nM |
| O[C@](c1ccccc1)(c1ncc(C[N+]23CCC(CC2)[C@@H](CSc2ccccc2)C3)o1)C1CCCCC1 [Example 100, (R)-1-[2-((R)—Cyclohexyl-hydroxy-phenyl-methyl)-oxazol-5-ylmethyl]-3-phenylsulfanylmethyl-1-azonia-bicyclo[2.2.2]octane; bromide] | < 5 nM |
| OC(c1ccccc1)(c1ccccc1)c1ncc(C[N+]23CCC(CC2)[C@@H](Oc2cccs2)C3)o1 [Example 102, (R)-1-[2-(Hydroxy-diphenyl-methyl)-oxazol-5-ylmethyl]-3-(thiophen-2-yloxy)-1-azonia-bicyclo[2.2.2]octane; bromide] | 5 to 20 nM |
| OC(c1ccccc1)(c1ccccc1)c1noc(C[N+]23CCC(CC2)[C@@H](Oc2ccccc2)C3)n1 [Example 103, (R)-1-[3-(Hydroxy-diphenyl-methyl)-[1,2,4]oxadiazol-5-ylmethyl]-3-phenoxy-1-azonia-bicyclo[2.2.2]octane; chloride] | < 5 nM |
| Cc1ccc(O[C@H]2C[N+]3(Cc4nc(C(O)(c5ccccc5)c5ccccc5)no4)CCC2CC3)cc1Cl [Example 104, (R)-3-(3-Chloro-4-methyl-phenoxy)-1-[3-(hydroxy-diphenyl-methyl)-[1,2,4]oxadiazol-5-ylmethyl]-1-azonia-bicyclo[2.2.2]octane; chloride] | < 5 nM |
| O[C@](c1ccccc1)(c1ncc(C[N+]23CCC(CC2)[C@@H](Sc2cccc(F)c2)C3)o1)C1CCCCC1 [Example 105, (R)-1-[2-((R)—Cyclohexyl-hydroxy-phenyl-methyl)-oxazol-5-ylmethyl]-3-(3-fluoro-phenylsulfanyl)-1-azonia-bicyclo[2.2.2]octane; bromide] | < 5 nM |
| O[C@](c1ccccc1)(c1ncc(C[N+]23CCC(CC2)[C@@H](CSc2ccc(F)cc2)C3)o1)C1CCCCC1 [Example 106, (R)-1-[2-((R)—Cyclohexyl-hydroxy-phenyl-methyl)-oxazol-5-ylmethyl]-3-(4-fluoro-phenylsulfanylmethyl)-1-azonia-bicyclo[2.2.2]octane; bromide] | < 5 nM |
| O[C@](c1ccccc1)(c1ncc(C[N+]23CCC(CC2)[C@@H](CSc2ccc(Cl)cc2)C3)o1)C1CCCCC1 [Example 107, (R)-3-(4-Chloro-phenylsulfanylmethyl)-1-[2-(R)cyclohexyl-hydroxy-phenyl-methyl)-oxazol-5-ylmethyl]-1-azonia-bicyclo[2.2.2]octane; bromide] | < 5 nM |
| O[C@](c1ccccc1)(c1ncc(C[N+]23CCC(CC2)[C@@H](CSc2cccc(F)c2)C3)o1)C1CCCCC1 [Example 108, (R)-1-[2-((R)—Cyclohexyl-hydroxy-phenyl-methyl)-oxazol-5-ylmethyl]-3-(3-fluoro-phenylsulfanylmethyl)-1-azonia-bicyclo[2.2.2]octane; bromide] | < 5 nM |
| O[C@](c1ccccc1)(c1ncc(C[N+]23CCC(CC2)[C@H](CSc2ccc(F)cc2)C3)o1)C1CCCCC1 [Example 109, (S)-1-[2-((R)—Cyclohexyl-hydroxy-phenyl-methyl)-oxazol-5-ylmethyl]-3-(4-fluoro-phenylsulfanylmethyl)-1-azonia-bicyclo[2.2.2]octane; bromide] | < 5 nM |
| O[C@](c1ccccc1)(c1ncc(C[N+]23CCC(CC2)[C@H](CSc2ccc(Cl)cc2)C3)o1)C1CCCCC1 [Example 110, (S)-3-(4-Chloro-phenylsulfanylmethyl)-1-[2-((R)cyclohexyl-hydroxy-phenyl-methyl)-oxazol-5-ylmethyl]-1-azonia-bicyclo[2.2.2]octane; bromide] | < 5 nM |
| O[C@](c1ccccc1)(c1ncc(C[N+]23CCC(CC2)[C@H](CSc2cccc(F)c2)C3)o1)C1CCCCC1 [Example 111, (S)-1-[2-((R)—Cyclohexyl-hydroxy-phenyl-methyl)-oxazol-5-ylmethyl]-3-(3-fluoro-phenylsulfanylmethyl)-1-azonia-bicyclo[2.2.2]octane; bromide] | < 5 nM |
